Data reported in US20100160351A1, “PHARMACEUTICAL COMPOSITIONS AND METHODS FOR TREATING HYPERURICEMIA AND RELATED DISORDERS” (NUON THERAPEUTICS, INC., priority 2008, published 2010).

Tested on: serum uric acid (sUA) levels in hyperuricemic patients
Experiment: PRESTO study: change in serum uric acid in hyperuricemic patients (baseline >=8 mg/dL), Tranilast twice daily for 1 or 3 months
Type: in vivo, human
Method: The PRESTO (Prevention of Restenosis with Tranilast and its Outcomes) study was a multicenter study of ˜11,500 patients undergoing percutaneous transluminal coronary revascularization (PTCR) with or without stenting for single or multiple vessels over a 9-month period. The study compared the composite clinical event rate of death, myocardial infarction, or need for ischemia-driven target vessel revascularization in patients treated with Tranilast (300 and 450 mg twice daily) for 1 or 3 months versus placebo. Description of the study protocol and patient population can be found in Holmes et al., The PRESTO (Prevention of Restenosis with Tranilast and its Outcomes) protocol: A double-blind, placebo-controlled trial, Am Heart J 2000; 139:23-31; and Holmes et al., Results of Prevention of REStenosis with Tranilast and its Outcomes (PRESTO) Trial, Circulation. 2002; 106:1243, both of which are incorporated by reference herein in their entirety.
Gout was a contraindication for patient enrollment in the PRESTO trial. Nevertheless, 1100 patients enrolled in the trial were identified with baseline hyperuricemia defined as initial serum uric acid (sUA) levels greater than or equal to 7 mg/dL. Of these, approximately 300 participants had baseline serum uric acid levels greater than or equal to 8 mg/dL. […] As indicated in FIG. 1 and Table 4, some patients were treated with placebo, some patients were treated with Tranilast for 4 weeks followed by placebo, and some patients were treated with Tranilast for 12 weeks.

[1] = 1M TRAN 300 mg/2M PLACEBO, Follow-Up
[2] = 1M TRAN 300 mg/2M PLACEBO, Post-PTCR
[3] = 1M TRAN 300 mg/2M PLACEBO, Week 1
[4] = 1M TRAN 300 mg/2M PLACEBO, Week 2
[5] = 1M TRAN 300 mg/2M PLACEBO, Week 3
[6] = 1M TRAN 300 mg/2M PLACEBO, Week 4
[7] = 1M TRAN 300 mg/2M PLACEBO, Week 6
[8] = 1M TRAN 300 mg/2M PLACEBO, Week 8
[9] = 1M TRAN 300 mg/2M PLACEBO, Week 10
[10] = 1M TRAN 300 mg/2M PLACEBO, Week 12
[11] = 1M TRAN 450 mg/2M PLACEBO, Follow-Up
[12] = 1M TRAN 450 mg/2M PLACEBO, Post-PTCR
[13] = 1M TRAN 450 mg/2M PLACEBO, Week 1
[14] = 1M TRAN 450 mg/2M PLACEBO, Week 2
[15] = 1M TRAN 450 mg/2M PLACEBO, Week 3
[16] = 1M TRAN 450 mg/2M PLACEBO, Week 4
[17] = 1M TRAN 450 mg/2M PLACEBO, Week 6
[18] = 1M TRAN 450 mg/2M PLACEBO, Week 8
[19] = 1M TRAN 450 mg/2M PLACEBO, Week 10
[20] = 1M TRAN 450 mg/2M PLACEBO, Week 12

With COc1ccc(/C=C/C(=O)Nc2ccccc2C(=O)O)cc1OC [Tranilast, 2-[[3-(3,4-dimethoxyphenyl)-1-oxo-2-propenyl]amino]benzoic acid] the “Change from Baseline in Uric Acid, Max” value [1] was 2.00 mg/dL, the “Change from Baseline in Uric Acid, Mean (SD)” value (“Change from Baseline … (SD)” below) [1] was −0.64 (1.351) mg/dL and the “Change from Baseline in Uric Acid, Median” value (shortened to “Change … Median”) [1] was -0.86 mg/dL. The “Change from Baseline in Uric Acid, Min” value [1] was -3.30 mg/dL, the “Change from Baseline in Uric Acid, Max” value [2] was 2.03 mg/dL and the “Change from Baseline … (SD)” value [2] was −1.33 (1.220) mg/dL. The “Change … Median” value [2] was -1.30 mg/dL, the “Change from Baseline in Uric Acid, Min” value [2] was -4.54 mg/dL and the “Change from Baseline in Uric Acid, Max” value [3] was 2.70 mg/dL. For the same compound, the “Change from Baseline … (SD)” value [3] was −2.31 (1.839) mg/dL, the “Change … Median” value [3] was -2.51 mg/dL and the “Change from Baseline in Uric Acid, Min” value [3] was -6.05 mg/dL. For the same compound, the “Change from Baseline in Uric Acid, Max” value [4] was 1.80 mg/dL, the “Change from Baseline … (SD)” value [4] was −2.61 (2.149) mg/dL and the “Change … Median” value [4] was -3.00 mg/dL. For the same compound, the “Change from Baseline in Uric Acid, Min” value [4] was -7.05 mg/dL, the “Change from Baseline in Uric Acid, Max” value [5] was 3.50 mg/dL and the “Change from Baseline … (SD)” value [5] was −2.43 (2.143) mg/dL. The “Change … Median” value [5] was -2.70 mg/dL, the “Change from Baseline in Uric Acid, Min” value [5] was -6.61 mg/dL and the “Change from Baseline in Uric Acid, Max” value [6] was 2.60 mg/dL. For the same compound, the “Change from Baseline … (SD)” value [6] was −2.30 (1.953) mg/dL, the “Change … Median” value [6] was -2.40 mg/dL and the “Change from Baseline in Uric Acid, Min” value [6] was -7.40 mg/dL. For the same compound, the “Change from Baseline in Uric Acid, Max” value [7] was 2.40 mg/dL, the “Change from Baseline … (SD)” value [7] was −0.82 (1.416) mg/dL and the “Change … Median” value [7] was -0.70 mg/dL. For the same compound, the “Change from Baseline in Uric Acid, Min” value [7] was -5.21 mg/dL, the “Change from Baseline in Uric Acid, Max” value [8] was 1.55 mg/dL and the “Change from Baseline … (SD)” value [8] was −0.63 (1.371) mg/dL. The “Change … Median” value [8] was -0.70 mg/dL, the “Change from Baseline in Uric Acid, Min” value [8] was -4.54 mg/dL and the “Change from Baseline in Uric Acid, Max” value [9] was 2.10 mg/dL. The “Change from Baseline … (SD)” value [9] was −0.79 (1.195) mg/dL, the “Change … Median” value [9] was -0.83 mg/dL and the “Change from Baseline in Uric Acid, Min” value [9] was -3.53 mg/dL. The “Change from Baseline in Uric Acid, Max” value [10] was 1.50 mg/dL, the “Change from Baseline … (SD)” value [10] was −0.75 (1.500) mg/dL and the “Change … Median” value [10] was -0.52 mg/dL. The “Change from Baseline in Uric Acid, Min” value [10] was -4.90 mg/dL, the “Change from Baseline in Uric Acid, Max” value [11] was 1.20 mg/dL and the “Change from Baseline … (SD)” value [11] was −0.53 (1.249) mg/dL. The “Change … Median” value [11] was -0.40 mg/dL, the “Change from Baseline in Uric Acid, Min” value [11] was -4.40 mg/dL and the “Change from Baseline in Uric Acid, Max” value [12] was 0.70 mg/dL. For the same compound, the “Change from Baseline … (SD)” value [12] was −2.00 (1.454) mg/dL, the “Change … Median” value [12] was -1.96 mg/dL and the “Change from Baseline in Uric Acid, Min” value [12] was -5.21 mg/dL. The “Change from Baseline in Uric Acid, Max” value [13] was 2.00 mg/dL, the “Change from Baseline … (SD)” value [13] was −3.66 (1.902) mg/dL and the “Change … Median” value [13] was -3.95 mg/dL. The “Change from Baseline in Uric Acid, Min” value [13] was -8.00 mg/dL, the “Change from Baseline in Uric Acid, Max” value [14] was 1.00 mg/dL and the “Change from Baseline … (SD)” value [14] was −3.43 (2.176) mg/dL. The “Change … Median” value [14] was -3.50 mg/dL, the “Change from Baseline in Uric Acid, Min” value [14] was -8.40 mg/dL and the “Change from Baseline in Uric Acid, Max” value [15] was -0.70 mg/dL. For the same compound, the “Change from Baseline … (SD)” value [15] was −4.19 (1.978) mg/dL, the “Change … Median” value [15] was -4.27 mg/dL and the “Change from Baseline in Uric Acid, Min” value [15] was -7.90 mg/dL. For the same compound, the “Change from Baseline in Uric Acid, Max” value [16] was 1.00 mg/dL, the “Change from Baseline … (SD)” value [16] was −3.52 (2.127) mg/dL and the “Change … Median” value [16] was -4.03 mg/dL. The “Change from Baseline in Uric Acid, Min” value [16] was -7.65 mg/dL, the “Change from Baseline in Uric Acid, Max” value [17] was 2.50 mg/dL and the “Change from Baseline … (SD)” value [17] was −0.29 (1.188) mg/dL. For the same compound, the “Change … Median” value [17] was -0.30 mg/dL, the “Change from Baseline in Uric Acid, Min” value [17] was -3.20 mg/dL and the “Change from Baseline in Uric Acid, Max” value [18] was 3.60 mg/dL. For the same compound, the “Change from Baseline … (SD)” value [18] was −0.49 (2.142) mg/dL, the “Change … Median” value [18] was -0.10 mg/dL and the “Change from Baseline in Uric Acid, Min” value [18] was -9.70 mg/dL. The “Change from Baseline in Uric Acid, Max” value [19] was 4.60 mg/dL, the “Change from Baseline … (SD)” value [19] was −0.46 (1.494) mg/dL and the “Change … Median” value [19] was -0.38 mg/dL. The “Change from Baseline in Uric Acid, Min” value [19] was -4.40 mg/dL, the “Change from Baseline in Uric Acid, Max” value [20] was 2.70 mg/dL and the “Change from Baseline … (SD)” value [20] was −0.56 (1.298) mg/dL. The “Change … Median” value [20] was -0.34 mg/dL and the “Change from Baseline in Uric Acid, Min” value [20] was -3.50 mg/dL.
